ChEMBL document CHEMBL5113423, “Discovery and preclinical profile of sudapyridine (WX-081), a novel anti-tuberculosis agent” (Bioorg Med Chem Lett, 2022)
In brackets after ≈: the same amount, converted by molar mass.

System: Mycobacterium tuberculosis
Test: Antimycobacterial activity against multidrug-resistant Mycobacterium tuberculosis assessed as mycobacterial growth inhibition
Type: functional

Point of comparison: `COc1nc(-c2ccc(Cl)cc2)ccc1[C@@H](c1ccccc1)[C@@](O)(CCN(C)C)c1cccc2ccccc12`, MIC50 0.111 µg/mL (≈ 0.207 µM). Against it:
- CO[C@H]1/C=C/O[C@@]2(C)Oc3c(C)c(O)c4c(O)c(c(/C=N/N5CCN(C)CC5)c(O)c4c3C2=O)NC(=O)/C(C)=C\C=C\[C@H](C)[C@H](O)[C@@H](C)[C@@H](O)[C@@H](C)[C@H](OC(C)=O)[C@@H]1C [RIFAMPIN] — higher, > 40 µg/mL
- COc1nc2ccc(Br)cc2cc1[C@@H](c1ccccc1)[C@@](O)(CCN(C)C)c1cccc2ccccc12 [BEDAQUILINE] — 3.5-fold lower, 0.032 µg/mL (≈ 0.0576 µM)
- NNC(=O)c1ccncc1 [ISONIAZID] — 38-fold higher, 4.21 µg/mL (≈ 30.7 µM)
- NC[C@H]1O[C@H](O[C@H]2[C@H](O)[C@@H](O[C@H]3O[C@H](CO)[C@@H](O)[C@H](N)[C@H]3O)[C@H](N)C[C@@H]2N)[C@H](O)[C@@H](O)[C@@H]1O [KANAMYCIN] — 11-fold higher, 1.24 µg/mL (≈ 2.55 µM)

Point of comparison: `COc1nc(-c2ccc(Cl)cc2)ccc1[C@@H](c1ccccc1)[C@@](O)(CCN(C)C)c1cccc2ccccc12`, MIC90 0.465 µg/mL (≈ 0.866 µM). Against it:
- CO[C@H]1/C=C/O[C@@]2(C)Oc3c(C)c(O)c4c(O)c(c(/C=N/N5CCN(C)CC5)c(O)c4c3C2=O)NC(=O)/C(C)=C\C=C\[C@H](C)[C@H](O)[C@@H](C)[C@@H](O)[C@@H](C)[C@H](OC(C)=O)[C@@H]1C [RIFAMPIN] — higher, > 40 µg/mL
- COc1nc2ccc(Br)cc2cc1[C@@H](c1ccccc1)[C@@](O)(CCN(C)C)c1cccc2ccccc12 [BEDAQUILINE] — 4.2-fold lower, 0.111 µg/mL (≈ 0.2 µM)
- NNC(=O)c1ccncc1 [ISONIAZID] — higher, > 40 µg/mL
- NC[C@H]1O[C@H](O[C@H]2[C@H](O)[C@@H](O[C@H]3O[C@H](CO)[C@@H](O)[C@H](N)[C@H]3O)[C@H](N)C[C@@H]2N)[C@H](O)[C@@H](O)[C@@H]1O [KANAMYCIN] — higher, > 40 µg/mL
